From patent publication US20180252700A1, “SCREENING AGENTS IN DRY EYE DISEASE” (Ora, Inc., priority 2016, published 2018)

Molecular target: T1, TRPM8 (Homo sapiens, UniProt Q7Z2W7)
T1 construct: cold receptors express TRPM8 channels, which are sensitive to innocuous cooling; from tissue; host or cells: eye (corneal cold thermoreceptor nerve endings) of living human subjects
Experiment: Menthol vs placebo symptom response on 0-10 Cooling Scale, escalating menthol concentrations (Example 1)
Assay type: in vivo
Details: for Is Menthol symptom response significantly higher than placebo? (TSS): Wilcox signed rank test, 95% confidence; for Duration of symptoms (furthest time point post-dose with symptom score higher than 0), mean: average of all concentrations
Procedure: 6 Healthy and 4 Dry Eye individuals participated in a 2-day internal pilot study. Each participant underwent randomized eye, contralateral, 15 μl pipette-instilled dosing of menthol and placebo (Sterile PBS, pH 7.2), across an escalating range of Menthol concentrations. The following dilutions (USP-grade L-Menthol in Sterile PBS, pH 7.2) were initially tested, in the following order (concentrations are w/v):
Post dose, a 0-10 Cooling Scale questionnaire, where 0 represents “No cooling sensation”, and 10 denotes “Maximum cooling sensation”, was asked at the following time points (OD, OS separate; OD represents your right eye and OS represents your left eye): Upon instillation, 30 seconds, 1 minute, 2 minutes, 3 minutes, and 4 minutes—post dose. At least 45 minutes was allowed between each successive dosing to allow for re-sensitization of TRPM8, as well as to allow any analgesic effects of μ-opioid activity to diminish. At the beginning of Visit 1, symptom questionnaires and Ocular Surface Disease Index (OSDI) were asked. After all concentrations of menthol had been tested, Fluorescein staining and Anesthetized Schirmer's test were performed (1 hour washout). The Schirmer test, first described in 1903 by Schirmer, is still the method most commonly used to evaluate aqueous tear production (Schirmer Graefes Arch Clin Exp Ophthalmol. 1903; 56:197-291,1903).
The primary parameter used was Total Symptom Sum, or TSS (sum of all time points), in active eye vs placebo eye. The secondary parameter used was “Upon instillation” Cooling score. FIG. 1 illustrates a frequency distribution of all symptom scores, based on a histogram of the data. […] As such, nonparametric statistical analysis was used to determine if differences exist between treatments (menthol vs placebo). In the following results, a Wilcox Signed Rank test was employed to test the null hypothesis that Menthol and Placebo elicit statistically similar symptom scores on the Cooling Scale. If TTest Stat<TCritical Value. If so, then the null hypothesis can be rejected with 95% confidence.
All concentrations tested are shown in Table 2, below, along with statistical significance indicated for either group according to a Wilcox Signed Rank Test (Total Symptom Sum, Menthol vs Placebo): […]

[1] = Dry Eye Population, Menthol 0.000050 (w/v)
[2] = Dry Eye Population, Menthol 0.000075 (w/v)
[3] = Dry Eye Population, Menthol 0.0001 (w/v)
[4] = Dry Eye Population, Menthol 0.001 (w/v)
[5] = Healthy Population, Menthol 0.001 (w/v)

T1 sequence (Q7Z2W7 whole entry): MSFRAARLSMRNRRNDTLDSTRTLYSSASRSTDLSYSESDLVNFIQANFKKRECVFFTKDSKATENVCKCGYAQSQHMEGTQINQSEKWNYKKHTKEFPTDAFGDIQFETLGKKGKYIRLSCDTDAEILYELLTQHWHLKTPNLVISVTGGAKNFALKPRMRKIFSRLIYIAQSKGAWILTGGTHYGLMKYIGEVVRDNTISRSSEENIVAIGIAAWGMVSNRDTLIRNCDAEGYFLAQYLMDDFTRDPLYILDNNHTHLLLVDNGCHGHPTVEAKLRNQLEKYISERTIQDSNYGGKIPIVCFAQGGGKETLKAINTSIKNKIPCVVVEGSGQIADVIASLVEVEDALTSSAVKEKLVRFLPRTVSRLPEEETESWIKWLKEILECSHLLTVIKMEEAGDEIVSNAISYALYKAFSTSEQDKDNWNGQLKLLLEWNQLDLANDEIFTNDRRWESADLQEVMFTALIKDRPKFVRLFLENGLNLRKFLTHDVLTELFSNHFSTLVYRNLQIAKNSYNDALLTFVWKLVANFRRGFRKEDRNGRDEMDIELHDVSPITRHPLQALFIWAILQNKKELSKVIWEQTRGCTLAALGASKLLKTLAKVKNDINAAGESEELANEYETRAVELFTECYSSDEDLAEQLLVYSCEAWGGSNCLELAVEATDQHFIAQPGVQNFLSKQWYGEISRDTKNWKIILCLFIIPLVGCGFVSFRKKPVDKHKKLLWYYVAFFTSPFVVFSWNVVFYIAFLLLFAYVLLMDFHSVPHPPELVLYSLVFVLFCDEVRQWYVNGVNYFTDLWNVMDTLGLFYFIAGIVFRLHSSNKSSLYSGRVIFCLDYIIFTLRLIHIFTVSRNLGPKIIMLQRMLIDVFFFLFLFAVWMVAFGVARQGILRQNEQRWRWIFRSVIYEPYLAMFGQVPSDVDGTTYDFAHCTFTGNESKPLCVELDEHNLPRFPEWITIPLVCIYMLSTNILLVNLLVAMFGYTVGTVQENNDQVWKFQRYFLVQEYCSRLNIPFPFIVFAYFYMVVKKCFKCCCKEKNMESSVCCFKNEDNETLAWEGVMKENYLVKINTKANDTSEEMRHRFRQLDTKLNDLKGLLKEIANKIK

CC(C)[C@@H]1CC[C@@H](C)C[C@H]1O [Menthol, L-Menthol]
% of population that had significantly higher menthol TSS than placebo TSS (Dry Eye Population, Menthol 0.000001 (w/v)): 0%
% of population that had significantly higher menthol TSS than placebo TSS (Dry Eye Population, Menthol 0.00001 (w/v)): 0%
% of population that had significantly higher menthol TSS than placebo TSS (Dry Eye Population, Menthol 0.000025 (w/v)): 0%
% of population that had significantly higher menthol TSS than placebo TSS [1]: 75%
Is Menthol symptom response significantly higher than placebo? (TSS) [1]: YES
% of population that had significantly higher menthol TSS than placebo TSS [2]: 25%
Is Menthol symptom response significantly higher than placebo? (TSS) [2]: YES
% of population that had significantly higher menthol TSS than placebo TSS [3]: 25%
Is Menthol symptom response significantly higher than placebo? (TSS) [3]: YES
% of population that had significantly higher menthol TSS than placebo TSS [4]: 75%
Is Menthol symptom response significantly higher than placebo? (TSS) [4]: YES
Duration of symptoms (furthest time point post-dose with symptom score higher than 0), mean (Dry Eye, p=0.004 vs Normal): 2.58 min
% of population that had significantly higher menthol TSS than placebo TSS (Healthy Population, Menthol 0.000001 (w/v)): 0%
% of population that had significantly higher menthol TSS than placebo TSS (Healthy Population, Menthol 0.00001 (w/v)): 0%
% of population that had significantly higher menthol TSS than placebo TSS (Healthy Population, Menthol 0.000025 (w/v)): 0%
% of population that had significantly higher menthol TSS than placebo TSS (Healthy Population, Menthol 0.000050 (w/v)): 16%
% of population that had significantly higher menthol TSS than placebo TSS (Healthy Population, Menthol 0.000075 (w/v)): 16%
% of population that had significantly higher menthol TSS than placebo TSS (Healthy Population, Menthol 0.0001 (w/v)): 0%
% of population that had significantly higher menthol TSS than placebo TSS [5]: 50%
Is Menthol symptom response significantly higher than placebo? (TSS) [5]: YES
Correlation score between Menthol TSS and 4-Symptom Questionnaire (Menthol 0.001%): 0.64
Correlation score between Menthol TSS and Fluorescein Staining (Corneal) (Menthol 0.001%): 0.50
Correlation score between Menthol TSS and OSDI (Menthol 0.001%): 0.79
Menthol TSS, Dry Eye vs Normal (Menthol 0.001%): significantly higher than Normal
Duration of symptoms (furthest time point post-dose with symptom score higher than 0), mean (Normal): 1.57 min
"Upon Instillation" menthol symptom response, Normal vs Dry Eye (any concentrations tested, FIG. 3): No significant differences
Symptom response to menthol (TSS), dry eye subjects vs normal (concentrations of 0.0001% and up, FIG. 2): significantly higher in dry eye subjects
Lower concentration at which Dry Eye population can differentiate Menthol from Placebo compared with Normal (from Table 2): 50 fold
